Reference: US8563741B2, “CDK inhibitors containing a zinc binding moiety” (Curis, Inc., priority 2007, dated 2013)

Columns and labels:
HDAC = HDAC fluorimetric assay kit (AK-500, Biomol), HeLa nuclear extract; assay type: biochemical
Description: HDAC inhibitors were screened using an HDAC fluorimetric assay kit (AK-500, Biomol, Plymouth Meeting, Pa.). […] Each assay was setup as follows: Defrosted all kit components and kept on ice until use. Diluted HeLa nuclear extract 1:29 in Assay Buffer (50 mM Tris/Cl, pH 8.0, 137 mM NaCl, 2.7 mM KCl, 1 mM MgCl2). Prepared dilutions of Trichostatin A (TSA, positive control) and tested compounds in assay buffer (5× of final concentration). Diluted Fluor de LysTM Substrate in assay buffer to 100 uM (50 fold=2× final). Diluted Fluor de LysTM developer concentrate 20-fold (e.g. 50 μl plus 950 μl Assay Buffer) in cold assay buffer. Second, diluted the 0.2 mM Trichostatin A 100-fold in the 1× Developer (e.g. 10 μl in 1 ml; final Trichostatin A concentration in the 1× Developer=2 μM; final concentration after addition to HDAC/Substrate reaction=1 μM). Added Assay buffer, diluted trichostatin A or test inhibitor to appropriate wells of the microtiter plate. Added diluted HeLa extract or other HDAC sample to all wells except for negative controls. Allowed diluted Fluor de LysTM Substrate and the samples in the microtiter plate to equilibrate to assay temperature (e.g. 25 or 37° C. Initiated HDAC reactions by adding diluted substrate (25 μl) to each well and mixing thoroughly. Allowed HDAC reactions to proceed for 1 hour and then stopped them by addition of Fluor de LysTM Developer (50 μl). Incubated plate at room temperature (25° C.) for 10-15 min. Read samples in a microtiter-plate reading fluorimeter capable of excitation at a wavelength in the range 350-380 nm and detection of emitted light in the range 440-460 nm.

CDK2/cyclinE = target: T1, CDK2/cyclinE (Homo sapiens, UniProt P24941); assay: CDK activity assay with p33 ATP, CDK2/cyclinE; assay type: biochemical; conditions: 1 μM ATP
T1 construct: C-terminal 6His-tagged, recombinant full-length CDK2 (MW=34 kDa); 6His (C); made in house; host or cells: Sf21 cells (baculovirus)
Description: CDK2/cyclinE (Accession Number for CDK2; EMBL M68520, for cyclinE1; GenBank NM_001238):
C-terminal 6His-tagged, recombinant full-length CDK2 (MW=34 kDa) in complex with N-terminal GST-tagged, recombinant full-length cyclinE1 (MW=74 kDa) were expressed with baculovirus system in Sf21 cells. Recombinant proteins were purified using Ni2+/NTA agarose and the purity of recombinant protein complex was measured to be around 76% by SDS-PAGE and Coomassie blue staining. Specific Activity of recombinant CDK2/cyclinE was 1336 U/mg, where one unit of CDK2/cylinE1 activity is defined as 1 nmol phosphate incorporated into 0.1 mg/ml histone H1 per minute at 30° C. with a final ATP concentration of 100 μM. Enzyme was stored with concentration of 0.1 mg/ml in 50 mM Tris/HCl pH 7.5, 150 mM NaCl, 0.03% Brij-35, 0.1 mM EGTA, 0.2 mM PMSF, 1 mM benzamidine, 0.1% 2-mercaptoethanol, 270 mM sucrose.

CDK3/cyclinE = target: T2, CDK3/cyclinE (Homo sapiens, UniProt Q00526); assay: CDK activity assay with p33 ATP, CDK3/cyclinE; assay type: biochemical; conditions: 1 μM ATP
T2 construct: C-terminal 6His-tagged recombinant human full-length cdk3 (MW=36 kDa); 6His (C); made in house; host or cells: Sf21 insect cells (baculovirus)
Description: CDK3/cyclinE (Accession Number for CDK3; GenBank X66357, for Cyclin E; GenBank NM_001238):
C-terminal 6His-tagged recombinant human full-length cdk3 (MW=36 kDa) were coexpressed with N-terminal GST-tagged recombinant human full-length cyclin E (MW=74 kDa) with baculovirus system in Sf21 insect cells. Recombinant protein complex was purified using Ni2+/NTA agarose and with purity to be 66% by SDS PAGE and Coomassie blue staining. Specific Activity of recombinant enzyme was measured to be 861 U/mg, where one unit of cdk3/cyclinE activity is defined as 1 nmol phosphate incorporated into 0.1 mg/ml histone H1 per minute at 30° C. with a final ATP concentration of […]. Enzyme was stored at a concentration of 0.1 mg/ml in 50 mM Tris/HCl pH7.5, 150 mM NaCl 0.1 mM EGTA, 0.03% Brij 35, 270 mM sucrose, 1 mM benzamidine, 0.2 mM PMSF, 0.1% 2-mercaptoethanol.

CDK4/cyclinD1 = target: T3, CDK4/cyclinD1 (Homo sapiens, UniProt P11802); assay: CDK activity assay with p33 ATP, CDK4/cyclinD1; assay type: biochemical; conditions: 1 μM ATP
T3 construct: Recombinant Human Full-length GST-tagged CDK-4 (MW=61.8 kDa) and cyclinD1 (MW=61.2 kDa); GST; made in house; host or cells: insect cells
T3 sequence (P11802 whole entry): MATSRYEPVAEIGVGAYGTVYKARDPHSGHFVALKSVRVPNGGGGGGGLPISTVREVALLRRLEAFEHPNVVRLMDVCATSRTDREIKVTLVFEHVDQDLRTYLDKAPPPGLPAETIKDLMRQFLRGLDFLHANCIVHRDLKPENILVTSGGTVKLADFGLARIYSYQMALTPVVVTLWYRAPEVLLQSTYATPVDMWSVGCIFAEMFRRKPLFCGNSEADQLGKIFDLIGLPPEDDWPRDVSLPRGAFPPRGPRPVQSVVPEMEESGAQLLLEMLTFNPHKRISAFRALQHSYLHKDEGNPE
T3 sequence (P24385 whole entry partner): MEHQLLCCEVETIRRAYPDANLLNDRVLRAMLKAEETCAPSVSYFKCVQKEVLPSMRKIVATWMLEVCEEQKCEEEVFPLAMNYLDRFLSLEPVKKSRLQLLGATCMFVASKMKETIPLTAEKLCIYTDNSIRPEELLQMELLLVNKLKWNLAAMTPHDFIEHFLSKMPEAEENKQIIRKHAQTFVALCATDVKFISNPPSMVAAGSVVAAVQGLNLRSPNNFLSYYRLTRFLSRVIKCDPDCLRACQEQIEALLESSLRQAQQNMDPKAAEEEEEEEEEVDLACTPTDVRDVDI
Description: Recombinant Human Full-length GST-tagged CDK-4 (MW=61.8 kDa) and cyclinD1 (MW=61.2 kDa) were expressed in insect cells. […] Activity was determined at a final protein concentration at 8.33 μg/mL.
RBC-CTF (Substrate for CDK4):
Human RB protein (S773-K928, MW=44.46 kDa), N-terminal GST-tagged was purified and followed with a factor Xa cleavage, which was performed in 4 mM concentration of glutathione, Purified protein was stocked at a concentration of 0.67 mg/ml.
2 nM CDK4/cyclinD1 and 1 μM RB-CTF were mixed in the reaction buffer with final concentration of 1 μM ATP and 1% DMSO.

CDK9/cyclinT1 = target: T4, CDK9/cyclinT1 (Homo sapiens, UniProt P50750); assay: CDK activity assay with p33 ATP, CDK9/cyclinT1; assay type: biochemical; conditions: 1 μM ATP
T4 construct: C-terminal 6His-tagged, full-length recombinant, human cdk9 (MW=44 kDa); 6His (C); made in house; host or cells: Sf21 insect cells (baculovirus)
T4 sequence (P50750 whole entry): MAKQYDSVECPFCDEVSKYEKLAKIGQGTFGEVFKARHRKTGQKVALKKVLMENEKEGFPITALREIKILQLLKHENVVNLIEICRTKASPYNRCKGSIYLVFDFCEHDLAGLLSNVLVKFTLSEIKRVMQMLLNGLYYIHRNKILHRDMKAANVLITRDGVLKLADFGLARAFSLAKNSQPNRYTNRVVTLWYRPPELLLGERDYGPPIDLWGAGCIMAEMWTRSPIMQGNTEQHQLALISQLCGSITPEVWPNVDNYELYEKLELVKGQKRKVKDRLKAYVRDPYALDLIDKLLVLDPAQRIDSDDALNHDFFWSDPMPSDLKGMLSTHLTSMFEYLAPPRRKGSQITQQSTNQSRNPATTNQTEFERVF
T4 sequence (O60563 whole entry partner): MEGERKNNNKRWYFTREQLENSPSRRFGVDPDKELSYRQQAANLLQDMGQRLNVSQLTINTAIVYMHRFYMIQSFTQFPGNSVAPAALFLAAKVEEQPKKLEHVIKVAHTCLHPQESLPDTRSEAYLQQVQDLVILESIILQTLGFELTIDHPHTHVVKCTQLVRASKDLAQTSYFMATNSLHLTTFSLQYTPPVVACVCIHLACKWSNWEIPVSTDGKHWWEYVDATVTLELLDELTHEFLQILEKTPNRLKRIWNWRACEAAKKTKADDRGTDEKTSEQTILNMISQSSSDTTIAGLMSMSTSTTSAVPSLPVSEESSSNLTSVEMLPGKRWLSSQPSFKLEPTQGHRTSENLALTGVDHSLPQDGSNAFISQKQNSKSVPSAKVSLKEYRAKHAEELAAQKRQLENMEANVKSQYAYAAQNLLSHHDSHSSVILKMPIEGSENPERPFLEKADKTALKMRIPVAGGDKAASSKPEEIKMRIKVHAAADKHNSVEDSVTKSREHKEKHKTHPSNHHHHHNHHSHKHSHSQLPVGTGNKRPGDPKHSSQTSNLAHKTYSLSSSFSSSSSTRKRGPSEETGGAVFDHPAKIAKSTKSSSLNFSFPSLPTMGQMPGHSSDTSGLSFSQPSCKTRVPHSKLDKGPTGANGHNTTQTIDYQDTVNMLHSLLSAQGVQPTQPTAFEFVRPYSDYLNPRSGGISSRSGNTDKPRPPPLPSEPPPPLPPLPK
Description: CDK9/cyclinT1 (Accession Number for CDK9; GenBank AF517840, for Cyclin T1; GenBank NM_001240)
C-terminal 6His-tagged, full-length recombinant, human cdk9 (MW=44 kDa) were co-expressed with untagged, full-length human cyclin T1 (MW=80.79 kDa) with baculovirus system in Sf21 insect cells. Recombinant protein complex was purified with Ni^2+/NTA agarose. Purity of recombinant protein was measured to be 50% by SDS-PAGE and Coomassie blue staining Specific Activity of purified enzyme was measured to be186 U/mg, where one unit of cdk9/cyclin T1 activity is defined as 1 nmol phosphate incorporated into 100 μM PDKtide ([…]) (SEQ ID NO. 3), per minute at 30° C. with a final ATP concentration of 100 μM. Enzyme was stored at a concentration of 0.1 mg/ml in 50 mM Tris-HCl, pH 7.5, 300 mM NaCl, 0.1 mM EGTA, 0.03% Brij-35, 270 mM sucrose, 1 mM benzamidine, 0.1% 2-mercaptoethanol, 0.2 mM PMSF.
PDKtide (Substrate for CDK9):
Synthetic peptide substrate with sequence of [[…]] (SEQ ID NO. 3), MW=4771.4.

CDK7/cyclinH1/MNAT1 = CDK7/cyclinH1/MNAT1 (Homo sapiens, UniProt P50613); assay: CDK activity assay with p33 ATP, CDK7/cyclinH1/MNAT1
Sequence of CDK7/cyclinH1/MNAT1 (P50613 whole entry): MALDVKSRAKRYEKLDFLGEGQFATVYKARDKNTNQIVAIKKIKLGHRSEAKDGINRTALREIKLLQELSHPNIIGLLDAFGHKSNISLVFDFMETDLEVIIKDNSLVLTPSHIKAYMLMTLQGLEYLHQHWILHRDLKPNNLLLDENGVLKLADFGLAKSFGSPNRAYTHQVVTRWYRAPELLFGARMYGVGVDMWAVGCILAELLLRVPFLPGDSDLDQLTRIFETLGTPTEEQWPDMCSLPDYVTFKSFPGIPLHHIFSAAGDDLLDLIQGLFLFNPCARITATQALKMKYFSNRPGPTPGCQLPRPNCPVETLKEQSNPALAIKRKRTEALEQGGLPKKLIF
Sequence of CDK7/cyclinH1/MNAT1 (P51946 whole entry partner): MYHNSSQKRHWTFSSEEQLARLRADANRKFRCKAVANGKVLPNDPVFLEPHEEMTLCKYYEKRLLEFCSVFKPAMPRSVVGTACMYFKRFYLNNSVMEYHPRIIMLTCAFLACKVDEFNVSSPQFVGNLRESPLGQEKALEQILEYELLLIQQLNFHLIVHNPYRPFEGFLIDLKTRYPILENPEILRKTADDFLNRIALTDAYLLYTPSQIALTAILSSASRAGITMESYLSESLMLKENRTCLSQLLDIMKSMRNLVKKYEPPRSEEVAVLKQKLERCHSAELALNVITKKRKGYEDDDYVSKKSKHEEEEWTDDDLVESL
Sequence of CDK7/cyclinH1/MNAT1 (P51948 whole entry partner): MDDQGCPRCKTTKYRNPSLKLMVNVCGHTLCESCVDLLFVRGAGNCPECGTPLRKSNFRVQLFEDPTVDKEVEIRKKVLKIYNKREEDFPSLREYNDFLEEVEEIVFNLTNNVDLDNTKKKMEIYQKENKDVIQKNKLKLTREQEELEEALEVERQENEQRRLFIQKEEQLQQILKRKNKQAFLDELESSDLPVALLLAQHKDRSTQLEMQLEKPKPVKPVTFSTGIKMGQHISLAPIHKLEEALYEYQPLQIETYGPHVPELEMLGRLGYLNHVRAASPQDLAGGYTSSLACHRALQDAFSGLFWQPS

IC50 (HDAC)	IC50 (CDK2/cyclinE)	IC50 (CDK3/cyclinE)	IC50 (CDK4/cyclinD1)	IC50 (CDK9/cyclinT1)	IC50 (CDK7/cyclinH1/MNAT1)	Compound
100 to 1000 nM	< 100 nM	< 100 nM	< 100 nM	< 100 nM	100 to 1000 nM	CC(C)(C)c1cnc(CSc2cnc(NC(=O)Cc3ccc(OCCCC(=O)NO)cc3)s2)o1 [Compound 9, 4-(4-(2-(5-((5-tert-butyloxazol-2-yl)methylthio)thiazol-2-ylamino)-2-oxoethyl)phenoxy)-N-hydroxybutanamide]
< 100 nM	< 100 nM	< 100 nM	100 to 1000 nM	< 100 nM	100 to 1000 nM	CC(C)(C)c1cnc(CSc2cnc(NC(=O)CCCCCCC(=O)NO)s2)o1 [Compound 8, N^1-(5-((5-tert-butyloxazol-2-yl)methylthio)thiazol-2-yl)-N^8-hydroxyoctanediamide]
< 100 nM	< 100 nM	< 100 nM	100 to 1000 nM	< 100 nM	1000 to 10000 nM	CC(C)(C)c1cnc(CSc2cnc(NC(=O)C3CCN(c4ncc(C(=O)NO)cn4)CC3)s2)o1 [Compound 20, 2-(4-(5-((5-tert-butyloxazol-2-yl)methylthio)thiazol-2-ylcarbamoyl)piperidin-1-yl)-N-hydroxypyrimidine-5-carboxamide]
